Assay [1] relates to T-Rex 293 cell line SC3 cells having increased expression of androgen receptor protein. Description: Cellular growth inhibition, T-Rex 293 SC3 cells with increased androgen receptor expression (doxycycline), CellTiter-Glo. The format is cell-based. Conditions: T-Rex 293 SC3 cells with increased androgen receptor expression (exposed to 10 ng/mL doxycycline), 72 hours, CellTiter-Glo; read-out: GI50. An outline of the steps: (§1)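 SC3, a T-Rex 293 clone with doxycycline-inducible wild-type androgen receptor, was seeded in phenol red-free DMEM with 10% charcoal-dextran FBS, with or without 10 ng/mL doxycycline. Compound added at 24 h (0.5% DMSO) for 72 h at 37° C. CellTiter-Glo 2.0 luminescence; GI50 from four-parameter fit.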
On the technique in general: ATP-based viability assays read luminescence as a measure of living cells.

The subject of assay [2] is T-Rex 293 cell line SC3 cells lacking increased expression of androgen receptor protein. Description: Cellular growth inhibition, T-Rex 293 SC3 cells lacking increased androgen receptor expression (no doxycycline), CellTiter-Glo. The format is cell-based. Conditions: T-Rex 293 SC3 cells lacking increased androgen receptor expression (not exposed to doxycycline), 72 hours, CellTiter-Glo; read-out: GI50. The essentials:
as §1

For a further assay, the target named is BRD4-BD1 (Homo sapiens (Human), UniProt O60885). Description: bromoKdELECT assay for binding affinity to BRD4-BD1. Conditions: 11-point 3-fold dilution.

The GI50 is the concentration at which growth is held to half of that of the control. The term Kd denotes the free concentration of one partner at which half of the binding sites on the other are occupied at equilibrium, for simple one-to-one binding.

For `CCS(=O)(=O)Nc1ccc(Oc2cccc(OCCOC3CCN(c4ccc(C(=O)N[C@H]5CC[C@H](Oc6ccc(C#N)c(Cl)c6)CC5)nn4)CC3)c2)c(-c2cn(C)c(=O)c3[nH]ccc23)c1` [I-1, N-[4-(3-chloro-4-cyano-phenoxy)cyclohexyl]-6-[4-[2-[3-[4-(ethylsulfonylamino)-2-(6-methyl-7-oxo-1H-pyrrolo[2,3-c]pyridin-4-yl)phenoxy]phenoxy]ethoxy]-1-piperidyl]pyridazine-3-carboxamide], the GI50 in assay [1] and in assay [2] was under 500 nM each time.
Turning to `CCS(=O)(=O)c1ccc(Oc2cccc(CCCOC3CC4(C3)CN(c3ccc(C(=O)N[C@H]5CC[C@H](Oc6ccc(C#N)c(Cl)c6)CC5)nn3)C4)c2F)c(-c2cn(C)c(=O)c3[nH]ccc23)c1` [I-46], the dissociation constant Kd on BRD4-BD1 was in the range of 500 to 2500 nM. Further, the GI50 in assay [1] and in assay [2] was under 500 nM each time.
`CCS(=O)(=O)c1ccc(Oc2cccc(CCC3CCN(c4ccc(C(=O)N[C@H]5CC[C@H](Oc6ccc(C#N)c(Cl)c6)CC5)nn4)CC3)c2F)c(-c2cn(C)c(=O)c3[nH]ccc23)c1` [I-51] gave a Kd on BRD4-BD1 of 50 to 500 nM. Besides, the GI50 in assay [1] and in assay [2] was under 500 nM in each case.
As for `CCS(=O)(=O)c1ccc(Oc2cccc(CCCC3CCN(c4ccc(C(=O)N[C@H]5CC[C@H](Oc6ccc(C#N)c(Cl)c6)CC5)nn4)CC3)c2F)c(-c2cn(C)c(=O)c3[nH]ccc23)c1` [I-52], the Kd on BRD4-BD1 lay within 50 to 500 nM. The concentration for 50% growth inhibition (GI50) in assay [1] and in assay [2] was under 500 nM throughout.
In the case of `CCS(=O)(=O)c1ccc(Oc2cc(F)c(CCC3CCN(c4ccc(C(=O)N[C@H]5CC[C@H](Oc6ccc(C#N)c(Cl)c6)CC5)nn4)CC3)cc2F)c(-c2cn(C)c(=O)c3[nH]ccc23)c1` [I-59], the Kd at BRD4-BD1 was 500 to 2500 nM. For the same compound, the GI50 in assay [1] and in assay [2] was under 500 nM in each case.
With `Cn1cc(-c2cc(C(C)(C)O)ccc2Oc2ccc(OC3CN(c4ccc(C(=O)N[C@H]5CC[C@H](Oc6ccc(C#N)c(Cl)c6)CC5)nn4)C3)cc2)c2cc[nH]c2c1=O` [I-95, N-[4-(3-chloro-4-cyano-phenoxy)cyclohexyl]-6-[3-[4-[4-(1-hydroxy-1-methyl-ethyl)-2-(6-methyl-7-oxo-1H-pyrrolo[2,3-c]pyridin-4-yl)phenoxy]phenoxy]azetidin-1-yl]pyridazine-3-carboxamide], at BRD4-BD1, the Kd was 500 to 2500 nM. Further, the GI50 in assay [1] and in assay [2] was under 500 nM throughout.
Regarding `Cn1cc(-c2cc(C(C)(C)O)ccc2Oc2ccc(CCC3CCN(c4ccc(C(=O)N[C@H]5CC[C@H](Oc6ccc(C#N)c(Cl)c6)CC5)nn4)CC3)cc2)c2cc[nH]c2c1=O` [I-102], the Kd on BRD4-BD1 is over 2500 nM. Further, the values for the GI50 in assay [1] and in assay [2] were under 500 nM and 500 to 1500 nM, respectively.
On the same counts, the results for `Cn1cc(-c2cc(C(C)(C)O)ccc2Oc2c(F)cc(CCOC3CCN(c4ccc(C(=O)N[C@H]5CC[C@H](Oc6ccc(C#N)c(Cl)c6)CC5)nn4)CC3)cc2F)c2cc[nH]c2c1=O` [I-109] are 500 to 2500 nM, under 500 nM and under 500 nM.
On BRD4-BD1, `Cn1cc(-c2cc(C(C)(C)O)ccc2O[C@H]2C[C@H](N(C)CC3CCN(c4ccc(C(=O)N[C@H]5CC[C@H](Oc6ccc(C#N)c(Cl)c6)CC5)nn4)CC3)C2)c2cc[nH]c2c1=O` [I-158, N-((1r,4r)-4-(3-chloro-4-cyanophenoxy)cyclohexyl)-6-(4-((((1r,3r)-3-(4-(2-hydroxypropan-2-yl)-2-(6-methyl-7-oxo-6,7-dihydro-1H-pyrrolo[2,3-c]pyridin-4-yl)phenoxy)cyclobutyl)(methyl)amino)methyl)piperidin-1-yl)pyridazine-3-carboxamide] displayed a Kd of 50 to 500 nM. For the same compound, the GI50 in assay [1] and in assay [2] was under 500 nM in each case.

Values taken from patent US20250388575A1, “HETEROBIFUNCTIONAL COMPOUNDS AND METHODS OF TREATING DISEASE” (Halda Therapeutics OpCo, Inc., priority 2022, published 2025).
